Where “and” joins values, the source holds several entries; their conditions need not be identical. Identical values can stand only once.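 Cultured in 96-well plates, cells were exposed to test compound for 48 hours across five concentrations. Here, GI50 denotes the concentration required for 50% inhibition of growth. At the TGI there is no net growth.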

Among the test systems are HOP-92 NSCLC; MDA-MB-231 breast; IGROV1 ovarian; RXF 393 renal; OVCAR-5 ovarian; NCI-H460 lung; NCI-H226 lung; MALME-3M melanoma.
Test in all cases: NCI tumour cell line growth inhibition, 48 h

Turning to `CC(=O)[C@H]1CCC/C=C/[C@@H]2C[C@H](O)C[C@H]2[C@H](O)/C=C/C(=O)O1`, the GI50 in the test with HOP-92 NSCLC is 4930 nM; in the test with MDA-MB-231 breast, 487 nM; in the test with IGROV1 ovarian, 803 nM; in the test with RXF 393 renal, 236 nM; in the test with OVCAR-5 ovarian it was 2100 nM; in the test with NCI-H460 lung it was 2670 nM. The GI50 is 976 nM in the test with NCI-H226 lung and 270 nM in the test on MALME-3M melanoma. Besides, the TGI in the test with HOP-92 NSCLC was above 100000 nM; in the test with MDA-MB-231 breast, 2390 nM; in the test with IGROV1 ovarian, above 24000 nM; in the test on RXF 393 renal, 742 nM; in the test with OVCAR-5 ovarian, above 62600 nM; in the test with NCI-H460 lung, above 100000 nM. For the same molecule, the figures for the TGI in the test with NCI-H226 lung and in the test on MALME-3M melanoma were 2280 nM and 3400 nM, respectively.
As to `Cc1cc(Nc2cc(N3CCN(C)CC3)nc(/C=C/c3ccccc3)n2)n[nH]1`, the GI50 in the test with HOP-92 NSCLC is 476 nM; in the test with MDA-MB-231 breast, 966 nM; with IGROV1 ovarian, 54.2 nM; in the test on RXF 393 renal, 246 nM; in the test on OVCAR-5 ovarian, 866 nM; with NCI-H460 lung, 290 nM. Moreover, the GI50 with NCI-H226 lung is 1290 nM; in the test with MALME-3M melanoma it was 796 nM. Further, the TGI is 1950 nM in the test with HOP-92 NSCLC; 9950 nM with MDA-MB-231 breast; 1620 nM with IGROV1 ovarian; 1040 nM with RXF 393 renal; above 9040 nM in the test on OVCAR-5 ovarian; above 5520 nM in the test with NCI-H460 lung. For the same molecule, the values for the TGI in the test on NCI-H226 lung and with MALME-3M melanoma were above 9460 nM and above 4770 nM, respectively.
In the case of `COc1cc(C2c3cc4c(cc3C(OC(=O)C[n+]3ccccc3)C3COC(=O)C23)OCO4)cc(OC)c1OC` (stereo unspecified), the GI50 with HOP-92 NSCLC was below 13 nM; with MDA-MB-231 breast, below 21.4 nM; in the test with IGROV1 ovarian, below 20.7 nM; in the test on RXF 393 renal, below 19.1 nM; with NCI-H460 lung, below 18.7 nM; with NCI-H226 lung, below 10 nM. The GI50 in the test with MALME-3M melanoma was above 100000 nM. Also, the TGI in the test with HOP-92 NSCLC is 2740 nM; in the test with MDA-MB-231 breast it was above 22400 nM; with IGROV1 ovarian, above 100000 nM; in the test on RXF 393 renal it was above 100000 nM; in the test with OVCAR-5 ovarian, above 100000 nM; in the test on NCI-H460 lung, above 100000 nM. The TGI in the test on NCI-H226 lung and in the test with MALME-3M melanoma was above 100000 nM each time.
`CCCCCC/C=C\CCCCCCCCCC1=C(CN2CCN(C)CC2)C(=O)C=C(OC)C1=O`: the TGI in the test on HOP-92 NSCLC is 6260 nM; with MDA-MB-231 breast it was 25900 nM; in the test with IGROV1 ovarian, 18300 nM; in the test on RXF 393 renal it was 6720 nM; in the test with OVCAR-5 ovarian, 28800 nM; in the test on NCI-H460 lung, 23200 nM. Further, the TGI is 30000 nM in the test with NCI-H226 lung and 9550 nM in the test with MALME-3M melanoma.
Take `C=CCC(N[C@H](CO)c1ccccc1)c1cn(Cc2ccccc2Cl)c(=O)n(Cc2ccccc2Cl)c1=O` (stereo partly specified): the GI50 in the test with HOP-92 NSCLC was 3920 nM; with MDA-MB-231 breast, 3740 nM; in the test with IGROV1 ovarian it was 13500 nM; in the test with RXF 393 renal, 8480 nM; with OVCAR-5 ovarian it was 25600 nM; in the test on NCI-H460 lung it was 18300 nM. Besides, the GI50 was 13700 nM in the test with NCI-H226 lung and 34500 nM with MALME-3M melanoma. For the same molecule, the TGI is 23100 nM in the test with HOP-92 NSCLC; 21500 nM in the test with MDA-MB-231 breast; 66300 nM in the test with IGROV1 ovarian; 23600 nM in the test on RXF 393 renal; above 100000 nM with OVCAR-5 ovarian; above 100000 nM in the test with NCI-H460 lung. For the same molecule, the TGI with NCI-H226 lung was determined as 49800 nM; in the test with MALME-3M melanoma it was 81000 nM.
With `COc1ccc([C@@]23Oc4cc(OC)cc(OC)c4[C@]2(O)[C@H](O)[C@H](C(N)=O)[C@H]3c2ccccc2)cc1`, the GI50 was below 15.3 nM in the test on HOP-92 NSCLC, 17.5 nM in the test on MDA-MB-231 breast, below 11.5 nM in the test with RXF 393 renal and 16.1 nM in the test on MALME-3M melanoma. Moreover, the TGI with HOP-92 NSCLC is 317 nM and 54.1 nM; in the test with MDA-MB-231 breast, 126 nM and 68.5 nM; in the test with IGROV1 ovarian, 64.1 nM and < 20.6 nM; in the test with RXF 393 renal, 47.2 nM and 13.6 nM; with OVCAR-5 ovarian, 74 nM and < 29.1 nM; with NCI-H460 lung it was 190 nM. Moreover, the TGI in the test on NCI-H226 lung is 93.5 nM and < 28.3 nM; with MALME-3M melanoma, 90.9 nM and < 10 nM.
As to `Oc1c(Cl)cc(Cl)c2ccc(Cn3cc(-c4ccc(C(F)(F)F)cc4)nn3)nc12`, the GI50 in the test on HOP-92 NSCLC is 1900 nM; in the test with MDA-MB-231 breast it was 2190 nM; in the test with IGROV1 ovarian, 1410 nM; in the test on RXF 393 renal, 402 nM; with OVCAR-5 ovarian, 2270 nM; in the test on NCI-H460 lung it was 18900 nM. Besides, the GI50 is 5640 nM with NCI-H226 lung and 1630 nM in the test on MALME-3M melanoma. For the same molecule, the TGI with HOP-92 NSCLC was 5820 nM; with MDA-MB-231 breast, 6810 nM; in the test on IGROV1 ovarian it was 3190 nM; in the test with RXF 393 renal it was 1790 nM; in the test with OVCAR-5 ovarian, 7590 nM; in the test with NCI-H460 lung it was 37300 nM. Besides, the TGI is 26700 nM in the test with NCI-H226 lung and 3130 nM in the test with MALME-3M melanoma.
With `CCCCCCCC/C=C/CCCCCCCC1=NC(C)(C)CN1CCO`, the GI50 with HOP-92 NSCLC was 1430 nM; in the test on MDA-MB-231 breast it was 1720 nM; with IGROV1 ovarian, 1510 nM; in the test on RXF 393 renal, 2020 nM; with OVCAR-5 ovarian, 2730 nM; with NCI-H460 lung, 1850 nM. The GI50 was 12600 nM in the test on NCI-H226 lung and 1850 nM in the test on MALME-3M melanoma. Moreover, the TGI is 7450 nM in the test with HOP-92 NSCLC; 3690 nM in the test with MDA-MB-231 breast; 2900 nM in the test on IGROV1 ovarian; 4370 nM with RXF 393 renal; 7980 nM with OVCAR-5 ovarian; 3420 nM in the test on NCI-H460 lung. Besides, the TGI worked out at 32800 nM in the test on NCI-H226 lung and 3880 nM in the test on MALME-3M melanoma.
For `CCN(CC)CCCC(C)N/C(=C1\C(=O)NC(=O)\C1=C(/NC(C)CCCN(CC)CC)c1cccc(OC)c1)c1cccc(OC)c1` (stereo unspecified), the GI50 with HOP-92 NSCLC is 642 nM; in the test with MDA-MB-231 breast it was 574 nM; in the test on IGROV1 ovarian, 844 nM; in the test with RXF 393 renal it was 720 nM; with OVCAR-5 ovarian, 1160 nM; with NCI-H460 lung, 580 nM. Further, the GI50 in the test with NCI-H226 lung was 1290 nM; in the test on MALME-3M melanoma, 850 nM. The TGI in the test with HOP-92 NSCLC was 1760 nM; in the test with MDA-MB-231 breast it was 1470 nM; in the test with IGROV1 ovarian, 2350 nM; in the test on RXF 393 renal, 1580 nM; in the test with OVCAR-5 ovarian it was 3420 nM; in the test on NCI-H460 lung, 2050 nM. Also, the TGI in the test with NCI-H226 lung was determined as 5900 nM; in the test on MALME-3M melanoma, 1630 nM.

The values above are taken from PubChem BioAssay (NCI).
